Patent US20070270399A1, “New compounds 302” (priority 2006, published 2007)

Assays:
[1] = Metabolic stability in liver microsomes (intrinsic clearance); format: in vitro ADME; conditions: human, pH 7.4, 37° C., read-out: CLint (HLM)
Description: The metabolic stability of compounds according to formula I can be determined as described below: […]
The rate of biotransformation can be measured as either metabolite(s) formation or the rate of disappearance of the parent compound. The experimental design involves incubation of low concentrations of substrate (usually 1.0 μM) with liver microsomes (usually 0.5 mg/ml) and taking out aliquotes at varying time points (usually 0, 5, 10, 15, 20, 30, 40 min.). The test compound is usually dissolved in DMSO. The DMSO concentration in the incubation mixture is usually 0.1% or less since more solvent can drastically reduce the activities of some CYP450s. Incubations are done in 100 mM potassium phosphate buffer, pH 7.4 and at 37° C. Acetonitrile or methanol is used to stop the reaction. The parent compound is analysed by HPLC-MS. From the calculated half-life, t1/2, the intrinsic clearance, Clint, is estimated by taking microsomal protein concentration and liver weight into account.

human NK3 receptor = biological target: T1, human NK3 receptor (Homo sapiens, UniProt P29371); assay: FLIPR assay, inhibition of human NK3 receptor activation (intracellular Ca2+); format: cell-based; conditions: CHO cells with human NK3 receptor, Pro-7-NKB agonist at approx. EC60; pKB converted from IC50
T1 construct: expressed in transfected cells; host or cells: CHO K1 cells (ATCC), pcDNA 3.1/Hygro (+)/IRES/CD8 vector
T1 sequence (P29371 1-465): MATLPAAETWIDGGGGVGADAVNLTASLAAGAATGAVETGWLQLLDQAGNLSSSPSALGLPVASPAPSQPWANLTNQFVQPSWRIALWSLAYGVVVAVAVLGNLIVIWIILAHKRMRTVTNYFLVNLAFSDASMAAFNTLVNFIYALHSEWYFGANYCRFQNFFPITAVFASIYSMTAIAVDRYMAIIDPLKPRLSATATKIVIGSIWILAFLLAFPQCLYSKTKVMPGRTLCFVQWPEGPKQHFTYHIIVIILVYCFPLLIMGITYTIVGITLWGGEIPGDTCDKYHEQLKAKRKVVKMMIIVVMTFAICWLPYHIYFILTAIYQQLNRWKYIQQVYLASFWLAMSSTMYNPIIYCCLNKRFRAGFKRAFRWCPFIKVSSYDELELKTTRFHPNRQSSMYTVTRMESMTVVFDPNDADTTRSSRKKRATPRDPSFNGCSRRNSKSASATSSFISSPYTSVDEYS
Description: (§1) Chinese Hamster Ovary (CHO) K1 cells (obtained from ATCC) were stably transfected with the human NK2 receptor (hNK2R cDNA in pRc/CMV, Invitrogen) or the human NK3 receptor (hNK3R in pcDNA 3.1/Hygro (+)/IRES/CD8, Invitrogen vector modified at AstraZeneca EST-Bio UK, Alderley Park). The cells were transfected with the cationic lipid reagent LIPOFECTAMINE™ (Invitrogen) and selection was performed with Geneticin (G418, Invitrogen) at 1 mg/ml for the hNK2R transfected cells and with Hygromycin (Invitrogen) at 500 μg/ml for the hNK3R transfected cells. Single cell clones were collected by aid of Fluorescence Activated Cell Sorter (FACS), tested for functionality in a FLIPR assay (see below), expanded in culture and cryopreserved for future use. CHO cells stably transfected with human NK1 receptors originates from AstraZeneca R&D, Wilmington USA. Human NK1 receptor cDNA (obtained from RNA-PCR from lung tissue) was subcloned into pRcCMV (Invitrogen). Transfection was performed by Calcium Phosphate and selection with 1 mg/ml G418. […]
(§2) The activity of a compound of the invention to inhibit NK1/NK2/NK3 receptor activation measured as NK1/NK2/NK3 receptor mediated increase in intracellular Ca^2+ was assessed by the following procedure: […]

CYP3A4 = CYP3A4 (Homo sapiens, UniProt P08684); assay: CYP3A4 inhibition according to Bapiro et al; format: in vitro ADME
Description: The IC50 values tested according to Bapiro et al; Drug Metab. Dispos. 29, 30-35 (2001) were generally greater than 50 μM.

human NK1 receptor = biological target: T2, human NK1 receptor (Homo sapiens, UniProt P25103); assay: FLIPR assay, inhibition of human NK1 receptor activation (intracellular Ca2+); format: cell-based; conditions: CHO cells with human NK1 receptor, Substance P agonist at approx. EC60; pKB converted from IC50
T2 construct: expressed in transfected cells; host or cells: CHO cells (AstraZeneca R&D, Wilmington USA), pRcCMV vector
Description: as §1, §2

[2] = biological target: hERG-encoded potassium channel (Homo sapiens, UniProt Q12809); assay: Activity against hERG (planar-array-based voltage clamp); format: cell-based
Description: The activity of compounds according to formula I against the hERG-encoded potassium channel can be determined according to Kiss L, et al. Assay Drug Dev Technol. 1 (2003), 127-35: “High throughput ion-channel pharmacology: planar-array-based voltage clamp”.
The IC50 values tested as described above were generally greater than 8 μM.

human NK2 receptor = biological target: T3, human NK2 receptor (Homo sapiens, UniProt P21452); assay: FLIPR assay, inhibition of human NK2 receptor activation (intracellular Ca2+); format: cell-based; conditions: CHO cells with human NK2 receptor, NKA agonist at approx. EC60; pKB converted from IC50
T3 construct: expressed in transfected cells; host or cells: CHO K1 cells (ATCC), pRc/CMV vector
T3 sequence (P21452 1-398): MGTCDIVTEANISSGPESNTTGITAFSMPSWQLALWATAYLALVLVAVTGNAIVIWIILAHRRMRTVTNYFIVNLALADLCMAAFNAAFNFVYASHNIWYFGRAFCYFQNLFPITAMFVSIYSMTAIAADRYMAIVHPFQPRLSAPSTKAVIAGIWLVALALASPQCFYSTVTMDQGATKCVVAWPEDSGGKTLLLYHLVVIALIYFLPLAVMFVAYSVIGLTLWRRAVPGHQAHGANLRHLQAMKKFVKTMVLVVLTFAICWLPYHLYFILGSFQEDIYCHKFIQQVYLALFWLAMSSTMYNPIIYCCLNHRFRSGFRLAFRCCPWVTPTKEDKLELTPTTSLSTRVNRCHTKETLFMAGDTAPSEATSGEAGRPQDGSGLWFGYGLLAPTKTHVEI
Description: as §1, §2

T2 sequence (P25103 whole entry): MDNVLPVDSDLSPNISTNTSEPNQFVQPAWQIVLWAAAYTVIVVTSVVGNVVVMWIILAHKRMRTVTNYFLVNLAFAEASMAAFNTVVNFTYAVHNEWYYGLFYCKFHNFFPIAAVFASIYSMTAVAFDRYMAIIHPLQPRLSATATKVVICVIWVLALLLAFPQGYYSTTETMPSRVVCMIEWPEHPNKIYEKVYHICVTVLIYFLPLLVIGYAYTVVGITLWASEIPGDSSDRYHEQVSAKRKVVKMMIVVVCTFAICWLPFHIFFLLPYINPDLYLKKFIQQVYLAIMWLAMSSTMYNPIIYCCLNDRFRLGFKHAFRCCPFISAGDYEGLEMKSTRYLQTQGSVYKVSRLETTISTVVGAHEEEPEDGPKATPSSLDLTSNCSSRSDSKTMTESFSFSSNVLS
hERG-encoded potassium channel, sequence (Q12809 whole entry): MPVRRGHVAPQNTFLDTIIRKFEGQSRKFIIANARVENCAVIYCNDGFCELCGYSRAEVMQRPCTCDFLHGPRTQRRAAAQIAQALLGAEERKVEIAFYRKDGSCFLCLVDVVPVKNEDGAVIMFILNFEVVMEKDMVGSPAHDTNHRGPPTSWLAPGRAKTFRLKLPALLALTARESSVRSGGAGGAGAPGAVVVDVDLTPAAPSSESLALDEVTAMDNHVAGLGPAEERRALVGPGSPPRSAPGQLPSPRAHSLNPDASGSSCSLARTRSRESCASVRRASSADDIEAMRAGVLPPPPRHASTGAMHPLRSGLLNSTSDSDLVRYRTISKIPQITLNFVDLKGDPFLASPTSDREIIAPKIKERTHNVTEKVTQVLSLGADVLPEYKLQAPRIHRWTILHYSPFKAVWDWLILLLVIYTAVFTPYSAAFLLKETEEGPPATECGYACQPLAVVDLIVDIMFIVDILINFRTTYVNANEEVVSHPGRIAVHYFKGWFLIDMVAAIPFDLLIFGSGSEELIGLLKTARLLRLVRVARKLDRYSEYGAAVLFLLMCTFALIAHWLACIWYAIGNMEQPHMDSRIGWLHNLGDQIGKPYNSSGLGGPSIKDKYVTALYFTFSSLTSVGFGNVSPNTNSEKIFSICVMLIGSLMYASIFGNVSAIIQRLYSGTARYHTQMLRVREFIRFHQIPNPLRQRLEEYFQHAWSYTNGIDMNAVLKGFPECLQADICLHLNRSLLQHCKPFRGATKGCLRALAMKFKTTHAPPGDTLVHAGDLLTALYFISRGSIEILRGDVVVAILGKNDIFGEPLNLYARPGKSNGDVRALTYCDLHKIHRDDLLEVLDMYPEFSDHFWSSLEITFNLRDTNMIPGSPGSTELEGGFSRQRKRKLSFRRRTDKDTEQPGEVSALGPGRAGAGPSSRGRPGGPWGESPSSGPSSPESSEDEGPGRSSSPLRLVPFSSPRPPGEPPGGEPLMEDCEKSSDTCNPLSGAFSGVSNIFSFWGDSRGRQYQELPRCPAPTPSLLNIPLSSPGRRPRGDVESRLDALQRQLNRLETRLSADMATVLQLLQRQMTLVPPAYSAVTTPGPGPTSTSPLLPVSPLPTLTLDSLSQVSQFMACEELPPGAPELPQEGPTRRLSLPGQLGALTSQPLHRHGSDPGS
CYP3A4, sequence (P08684 whole entry): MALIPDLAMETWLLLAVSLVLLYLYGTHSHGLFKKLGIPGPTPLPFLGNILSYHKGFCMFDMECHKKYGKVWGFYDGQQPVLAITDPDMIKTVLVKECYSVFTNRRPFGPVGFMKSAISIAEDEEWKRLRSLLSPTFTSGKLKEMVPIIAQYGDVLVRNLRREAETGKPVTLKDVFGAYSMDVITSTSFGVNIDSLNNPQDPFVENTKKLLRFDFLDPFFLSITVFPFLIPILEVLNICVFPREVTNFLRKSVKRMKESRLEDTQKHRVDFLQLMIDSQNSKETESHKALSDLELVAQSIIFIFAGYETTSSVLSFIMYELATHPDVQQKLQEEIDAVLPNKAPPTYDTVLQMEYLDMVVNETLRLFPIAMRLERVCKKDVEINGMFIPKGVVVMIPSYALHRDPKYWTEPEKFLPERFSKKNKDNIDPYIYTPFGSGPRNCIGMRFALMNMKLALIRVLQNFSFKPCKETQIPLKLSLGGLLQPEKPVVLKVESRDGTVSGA

Compound: CN(C[C@@H](CCN1CC(N2CCOCC2)C1)c1ccc(F)cc1)C(=O)c1cc(Cl)cc(C(F)(F)F)c1 [Ex1, 3-Chloro-N-[(2S)-2-(4-fluorophenyl)-4-(3-morpholin-4-ylazetidin-1-yl)butyl]-N-methyl-5-(trifluoromethyl)benzamide]
- microsomal CLint at 1 μM [1]: 39 µL/min/mg
- Kb (human NK3 receptor): 0.126 µM
- IC50 (CYP3A4): > 50 µM
- Kb (human NK1 receptor): 0.0251 µM
- IC50 [2]: 8.5 µM
- Kb (human NK2 receptor): 0.0501 µM
